Test results published in ChEMBL document CHEMBL1155336, “Design and discovery of 1,3-benzodiazepines as novel dopamine antagonists” (Bioorg Med Chem Lett, 2009).

Key:
Homo sapiens = species: Homo sapiens; assay: Selectivity ratio, the ratio of ki for human D2 receptor to Ki for human D1 receptor
[1] = Ionization constant for the compound (pKa); format: physicochemical

Structure (SMILES) | Ratio (Homo sapiens) | pKa [1]
Oc1cc2c(cc1Cl)CCN=C(NC1CCCC1)N2 | 12 | 
Oc1cc2c(cc1Cl)CCN=C(SCc1ccccc1)N2 | 2 | 
Oc1cc2c(cc1Cl)CCN=C(C1CCCCC1)N2 | 7 | 
CC1=NCCc2cc(Cl)c(O)cc2N1c1ccsc1 | 32 | 
CC(C)CC1=NCCc2cc(Cl)c(O)cc2N1 | 17 | 
CCCC/N=C/N(C)c1ccccc1 |  | 8.9
NC1=NCCc2cc(Cl)c(O)cc2N1 | 1 | 
Oc1cc2c(cc1Cl)CCN=C(NC1CCCCC1)N2 | 12 | 
Oc1cc2c(cc1Cl)CCN=C(c1ccccc1)N2 | 42 | 
CC1=NCCc2cc(Cl)c(O)cc2N1c1ccccc1C | 31 | 
Oc1cc2c(cc1Cl)CCN=C(NC1CC1)N2 | 6 | 
Oc1cc2c(cc1Cl)CCN=C(NCCc1ccccc1)N2 | 1 | 
CN(C)c1ccc(/C=C/C2=NCCc3cc(Cl)c(O)cc3N2c2ccccc2)cc1 | 23 | 
COc1ccc(/C=C/C2=NCCc3cc(Cl)c(O)cc3N2)cc1 | 3 | 
CSC1=NCCc2cc(Cl)c(O)cc2N1 | 5 | 
CC1=NCCc2cc(Cl)c(O)cc2N1Cc1ccccc1 | 3 | 
CC1=NCCc2cc(Cl)c(O)cc2N1c1ccc(C)cc1 | 55 | 
CC1=NCCc2cc(Cl)c(O)cc2N1c1ccccc1 | 36 | 
COc1ccc2cc(C3=NCCc4cc(Cl)c(O)cc4N3)ccc2c1 | 4 | 
N=C(N)Nc1ccccc1 [PHENYLGUANIDINE] |  | 10.8
Oc1cc2c(cc1Cl)CCN=C(C1CC1)N2 | 1 | 
CNC1=NCCc2cc(Cl)c(O)cc2N1 | 13 | 
CN(C)c1ccc(/C=C/C2=NCCc3cc(Cl)c(O)cc3N2C2CCCCC2)cc1 | 8 | 
COc1ccc(C2CC2C2=NCCc3cc(Cl)c(O)cc3N2)cc1 (centres undefined) | 3 | 
